# Results as given in article PMC5443783, “Prostaglandin E2 glyceryl ester is an endogenous agonist of the nucleotide receptor P2Y6” (Scientific Reports, 2017).
# Legend:
# P2Y6 [1] = target: T1, P2Y6 (Homo sapiens, UniProt Q15077); test: IP3 assay in P2RY6-transfected HEK293 cells; format: cell-based; design: expressed in transfected cells; host or cells: HEK293; conditions: Fig. 3a, read-out: EC50, IP3 levels
# Protocol: To measure intracellular IP3 the HitHunter® Inositol (1,4,5) Triphosphate Assay (DiscoveRx, USA) was used according to manufacturer′s protocol. HEK293 cells stably transfected with hP2RY6 were seeded in a 384-well Black microtiter plate (15,000 cells/well) (Greiner Bio One, Germany) and incubated with indicated concentrations of UDP and PGE2-G for 20 seconds. Reaction was stopped by adding 5 µl 0.2 N perchloric acid and measurement of IP3 was performed with the Fusion AlphaScreen multilabel reader (PerkinElmer Life Sciences) according to manufacturer′s protocol. To measure IP1, HEK293 cells expressing wildtype and mutant P2Y6 were seeded into 384-well plates (5,000 cells/well) 24 h prior assay. After aspiration of the medium, cells were incubated with indicated concentrations of agonists/antagonist for 1 h. IP1 measurements using the IP-one HTFR® assay kit (Cisbio assays, USA) were performed according to manufacturer′s protocol. The assays were performed with a final concentration of 1% DMSO.
# P2Y6 [2] = target: T1, P2Y6; test: cAMP-inhibition assay in P2RY6-transfected HEK293 cells; format: cell-based; design: expressed in transfected cells; host or cells: HEK293; conditions: P2RY6-transfected HEK293, 2.5 µM forskolin, Fig. 3c; read-out: EC50, suppression of cAMP formation
# Protocol: After transfection (72 h), cells were washed once with DMEM/F12 containing 1 mM 3-isobutyl-methyl-xanthine (IBMX) followed by incubation in the presence of the indicated compounds and forskolin (2.5 µM) for 15 min at 37 °C. The final concentration of DMSO was 1%. Cells were lysed in 25 μl lysis buffer (5 mM HEPES; 0.1% BSA; 0.3% Tween20; 1 mM IBMX; pH 7.4) and kept frozen at −20 °C until measurement. To measure cAMP concentration, the AlphaScreen cAMP assay kit (PerkinElmer Life Sciences) was used according to the manufacturer’s protocol.
# T1 sequence (Q15077 whole entry, the tested form may be a part): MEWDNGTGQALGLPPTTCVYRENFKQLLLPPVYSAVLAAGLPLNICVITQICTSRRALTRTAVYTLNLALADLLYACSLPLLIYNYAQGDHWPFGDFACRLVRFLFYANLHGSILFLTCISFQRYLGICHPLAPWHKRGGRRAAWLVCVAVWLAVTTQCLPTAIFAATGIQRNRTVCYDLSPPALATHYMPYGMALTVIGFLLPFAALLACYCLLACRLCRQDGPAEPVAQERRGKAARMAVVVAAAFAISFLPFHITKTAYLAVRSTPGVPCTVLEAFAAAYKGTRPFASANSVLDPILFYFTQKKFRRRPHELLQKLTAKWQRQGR
smiles,measurement,setting,value
O=c1ccn([C@@H]2O[C@H](COP(=O)(O)OP(=O)(O)O)[C@@H](O)[C@H]2O)c(=O)[nH]1 [UDP],EC50,P2Y6 [1],2.7 ± 0.1 nM
same,EC50,P2Y6 [2],3.6 ± 0.3 nM
